24 compounds from patent publication US9834521B2, “Choline kinase inhibitors” (ARIAD Pharmaceuticals, Inc., priority 2013, dated 2017) can be followed below.

The term pIC50 denotes the IC50 on a negative log10 scale, so that one unit is a factor of ten. The term pKd denotes −log10 of the Kd, conventionally taken in molar units.

For assay [1], the target named is T1, truncated form of human Choline kinase α1 that includes residues 75-457 (Homo sapiens, UniProt P35790).
T1 construct: made in house
Briefly: Kinase Assay, coupled (ATP regeneration) LDH/PK assay, NADH absorbance. Type of assay: biochemical. The procedure: Absorbance of NADH (340 nm) was measured over 30 min using a SpectraMax M5 (Molecular Devices). Initial reaction velocity (ΔA340/Δt) was calculated and plotted as a function of inhibitor concentration in a 2-fold dilution series. IC50 values were obtained by fitting the relative velocities to a dose-response model.

For assay [2], the target named is T2, ChoKα protein (Homo sapiens, UniProt P35790).
T2 construct: made in house
Description: Binding affinity by surface plasmon resonance (SensiQ Pioneer, FastStep). The procedure:
KD may be measured using surface plasmon resonance (BIAcore®) technology, see, e.g., Panayotou et al, Mol. Cell. […] ChoKα protein was immobilized by standard amine coupling methods on a COOH5 sensor chip installed in a SensiQ Pioneer system. Sensograms were measured using the FastStep™ screen method with an upper concentration of 500 nM. Kinetics and affinity were obtained from fits using a 1:1 binding model.
(Surface plasmon resonance follows binding to a sensor surface in real time, without labels.)

Setting [3] is: Examples not designated with an asterisk, footnote prints version 1 of the Kinase Assay, read-out: IC50.
The mark [4] stands for this setting: SPR, 1:1 binding model, upper concentration 500 nM, read-out: Kd.
Setting [5] is: Examples designated with an asterisk (*): version 1 of the Kinase Assay, 200 nM enzyme, read-out: IC50.

pIC50, pKd: −log10 of the molar value. Read-outs that look alike come from different tables or passages of the source. A value given as a limit tells only on which side of the number the result lay.

T1 sequence (P35790 75-457): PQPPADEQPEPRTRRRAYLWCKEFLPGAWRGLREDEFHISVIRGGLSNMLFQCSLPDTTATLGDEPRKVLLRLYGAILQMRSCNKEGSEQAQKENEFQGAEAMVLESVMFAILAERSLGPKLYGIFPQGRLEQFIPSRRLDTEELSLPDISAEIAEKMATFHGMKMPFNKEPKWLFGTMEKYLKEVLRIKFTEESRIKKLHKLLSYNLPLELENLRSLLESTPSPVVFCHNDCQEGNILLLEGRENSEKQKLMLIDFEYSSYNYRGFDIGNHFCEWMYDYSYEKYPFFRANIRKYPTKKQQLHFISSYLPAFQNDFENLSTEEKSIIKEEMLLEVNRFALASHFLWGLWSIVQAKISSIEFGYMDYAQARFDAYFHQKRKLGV
T2 sequence (P35790 75-457): as above

For `CNC(=O)Nc1ccc(-c2ccc(CN3CCCN(C)CC3)cc2C#N)cc1` [Example 114, 1-(2′-cyano-4′-((4-methyl-1,4-diazepan-1-yl)methyl)-[1,1′-biphenyl]-4-yl)-3-methylurea], in assay [1] (setting [3]), the pIC50 was more than 7.00. In addition, the pKd in assay [2] (setting [4]) is more than 7.00. Turning to `CN1CCCN(Cc2ccc(-n3cncn3)cc2)CC1` [Example 139, 1-(4-(1H-1,2,4-triazol-1-yl)benzyl)-4-methyl-1,4-diazepane], the pIC50 in assay [1] (setting [5]) was more than 6.30. Besides, in assay [2] (setting [4]), the pKd is more than 4.22.

`CN1CCCN(Cc2ccc(-c3ccccc3)c(F)c2)CC1` [Example 134, 1-((2-fluoro-[1,1′-biphenyl]-4-yl)methyl)-4-methyl-1,4-diazepane]: the pIC50 in assay [1] (setting [5]) was more than 6.70. In addition, the negative-log Kd (pKd) in assay [2] (setting [4]) is more than 4.22. Turning to `CN1CCCN(Cc2ccc(-c3ccc(N4CCN(C)CC4)cc3)cc2)CC1` [Example 138, 1-methyl-4-((4′-(4-methylpiperazin-1-yl)-[1,1′-biphenyl]-411)methyl)-1,4-diazepane], in assay [1], the pIC50 was more than 6.70. For the same compound, the pKd in assay [2] was more than 4.22.

As for `CN1CCCN(Cc2ccc(-c3ccc(CN4CCOCC4)cc3)c(C#N)c2)CC1` [Example 9, 4-((4-methyl-1,4-diazepan-1-yl)methyl)-4′-(morpholinomethyl)-[1,1′-biphenyl]-2-carbonitrile], the pIC50 in assay [1] (setting [3]) was more than 6.70. For the same compound, the pKd in assay [2] (setting [4]) was more than 7.00.

For `CNS(=O)(=O)c1ccc(-c2ccc(CN3CCCN(C)CC3)cc2C#N)c(C)c1` [Example 97, 2′-cyano-N,2-dimethyl-4′-((4-methyl-1,4-diazepan-1-yl)methyl)-[1,1′-biphenyl]-4-sulfonamide], the pIC50 in assay [1] (setting [3]) is more than 6.70. Further, the pKd in assay [2] (setting [4]) was more than 6.70. Consider `CN1CCCN(Cc2ccc(-c3ccc(CNS(C)(=O)=O)cc3)c(C#N)c2)CC1` [Example 48, N-((2′-cyano-4′-((4-methyl-1,4-diazepan-1-yl)methyl)-[1,1′-biphenyl]-4-yl)methyl)methanesulfonamide], for which, in assay [1] (setting [3]), the pIC50 is more than 7.00. In assay [2] (setting [4]), the pKd is more than 7.30.

Turning to `CN1CCCN(Cc2ccc(-c3ccc(CN4CCNC(=O)C4)cc3)c(C#N)c2)CC1` [Example 7, 4-((4-methyl-1,4-diazepan-1-yl)methyl)-4′-((3-oxopiperazin-1-yl)methyl)-[1,1′-biphenyl]-2-carbonitrile], the pIC50 in assay [1] (setting [3]) is more than 6.70. The pKd in assay [2] (setting [4]) is more than 4.22. As to `CN1CCCN(Cc2ccc(-c3ccc(C(=O)N4CCCN(C)CC4)cc3-c3cn[nH]c3)c(C#N)c2)CC1` [Example 71, 4-((4-methyl-1,4-diazepan-1-yl)methyl)-4′-(4-methyl-1,4-diazepane-1-carbonyl)-2′-(1H-pyrazol-4-yl)-[1,1′-biphenyl]-2-carbonitrile], the pIC50 in assay [1] (setting [3]) was more than 7.00. For the same compound, the pKd in assay [2] (setting [4]) is more than 7.00. Take `CN1CCCN(Cc2ccc(-c3ccc(NC(N)=O)cc3)c(C#N)c2)CC1` [Example 90, 1-(2′-cyano-4′-((4-methyl-1,4-diazepan-1-yl)methyl)-[1,1′-biphenyl]-4-yl)urea]: the pIC50 in assay [1] (setting [3]) was more than 6.70. Besides, the negative-log Kd (pKd) in assay [2] (setting [4]) is more than 6.70. For `Cc1cc(CN2CCCN(C)CC2)ccc1-c1ccc(CO)cc1` [Example 51, (2′-methyl-4′-((4-methyl-1,4-diazepan-1-yl)methyl)-[1,1′-biphenyl]-4-yl)methanol], in assay [1] (setting [3]), the pIC50 was more than 6.70. Further, the pKd in assay [2] (setting [4]) was more than 4.22. With `CN1CCCN(Cc2ccc(-c3ccc(C(=O)N4CCCN(C)CC4)cc3-c3cccc([N+](=O)[O-])c3)c(C#N)c2)CC1` [Example 77, 4-((4-methyl-1,4-diazepan-1-yl)methyl)-4′-(4-methyl-1,4-diazepane-1-carbonyl)-3″-nitro-[1,1′:2′,1″-terphenyl]-2-carbonitrile], the pIC50 in assay [1] (setting [3]) is more than 7.00. Further, in assay [2] (setting [4]), the pKd is more than 7.30. On the same counts, the results for `CNC(=O)c1ccc(-c2ccc(CN3CCCN(C)CC3)cc2C#N)cc1` [Example 29, 2′-cyano-N-methyl-4′-((4-methyl-1,4-diazepan-yl)methyl)-[1,1′-biphenyl]-4-carboxamide] are more than 6.70 and more than 6.70. In assay [1], `CN1CCCN(Cc2ccc(-c3ccc(C(F)(F)F)cc3)cc2)CC1` [Example 137, 1-methyl-4-((4′-(trifluoromethyl)-[1,1′-biphenyl]-4-yl)methyl)-1,4-diazepane] showed a pIC50 of more than 6.70. The compound further showed a pKd in assay [2] of more than 4.22. As for `CN1CCCN(Cc2ccc(-c3ccc(S(=O)(=O)N4CCOCC4)cc3)c(C#N)c2)CC1` [Example 88, 4-((4-methyl-1,4-diazepan-1-yl)methyl)-4′-(morpholinosulfonyl)-[1,1′-biphenyl]-2-carbonitrile], the pIC50 in assay [1] (setting [3]) is more than 6.70. Moreover, in assay [2] (setting [4]), the pKd was more than 6.70. With `CN1CCCN(Cc2ccc(-c3ccc(C(=O)N4CCC(CO)C4)cc3)c(C#N)c2)CC1` (stereo not shown) [Example 22, 4′-(3-(hydroxymethyl)pyrrolidine-1-carbonyl)-4-((4-methyl-1,4-diazepan-1-yl)methyl)-[1,1′-biphenyl]-2-carbonitrile], the pIC50 in assay [1] (setting [3]) was more than 6.70. Besides, the pKd in assay [2] (setting [4]) is more than 6.70. As for `CN1CCCN(Cc2ccc(-c3ccc(CN4CCCC(O)C4)cc3)c(C#N)c2)CC1` (stereo not shown) [Example 1, 4′-((3-hydroxypiperidin-1-yl)methyl)-4-((4-methyl-1,4-diazepan-1-yl)methyl)-[1,1′-biphenyl]-2-carbonitrile], the pIC50 in assay [1] (setting [3]) is more than 7.00. Moreover, the pKd in assay [2] (setting [4]) is more than 7.00.

With `CN1CCCN(Cc2ccc(-n3cccn3)cc2F)CC1` [Example 142, 1-(2-fluoro-4-(1H-pyrazol-1-yl)benzyl)-4-methyl-1,4-diazepane], the pIC50 in assay [1] (setting [5]) was more than 6.70. Besides, the pKd in assay [2] (setting [4]) was more than 4.22.

`CN1CCCN(Cc2ccc(-c3ccc(S(=O)(=O)N4CCN(C)CC4)cc3)c(C#N)c2)CC1` [Example 84, 4-((4-methyl-1,4-diazepan-1-yl)methyl)-4′-((4-methylpiperazin-1-yl)sulfonyl)-[1,1′-biphenyl]-2-carbonitrile]: the pIC50 in assay [1] (setting [3]) is more than 7.00. Also, the pKd in assay [2] (setting [4]) is more than 7.00.

Take `CN1CCCN(Cc2ccc(-c3ccncc3)cc2)CC1` [Example 140, 1-methyl-4-(4-(pyridin-4-yl)benzyl)-1,4-diazepane]: the negative logarithm of the IC50 (pIC50) in assay [1] (setting [5]) was more than 6.70. For the same compound, the pKd in assay [2] (setting [4]) is more than 4.22. For `CN1CCCN(Cc2ccc(-c3ccc(C(=O)N4CCCN(C)CC4)cc3C#N)c(C#N)c2)CC1` [Example 63, 4-((4-methyl-1,4-diazepan-1-yl)methyl)-4′-(4-methyl-1,4-diazepane-1-carbonyl)-[1,1′-biphenyl]-2,2′-dicarbonitrile], the pIC50 in assay [1] (setting [3]) was more than 6.70. The pKd in assay [2] (setting [4]) was more than 6.70.

Consider `CN1CCCN(Cc2ccc(-c3ccc(CN4CCN(CCO)CC4)cc3)c(C#N)c2)CC1` [Example 6, 4′-((4-(2-hydroxyethyl)piperazin-1-yl)methyl)-4-((4-methyl-1,4-diazepan-1-yl)methyl)-[1,1′-biphenyl]-2-carbonitrile], for which the pIC50 in assay [1] (setting [3]) is more than 6.70. Besides, the pKd in assay [2] (setting [4]) is more than 7.00. Regarding `CN1CCCN(Cc2ccc(-c3ccc(C#N)cc3)c(C#N)c2)CC1` [Example 105, 4-((4-methyl-1,4-diazepan-1-yl)methyl)-[1,1′-biphenyl]-2,4′-dicarbonitrile], the pIC50 in assay [1] (setting [3]) is more than 6.30.

For the compound `CC(=O)NS(=O)(=O)c1ccc(-c2ccc(CN3CCCN(C)CC3)cc2C#N)cc1` [Example 109, N-((2′-cyano-4′-((4-methyl-1,4-diazepan-1-yl)methyl)-[1,1′-biphenyl]-4-yl)sulfonyl)acetamide], the pIC50 in assay [1] (setting [3]) is more than 6.30.
